Measurements reported in article PMC8174729, “Inhibition of CMP-sialic acid transport by endogenous 5-methyl CMP” (PLoS ONE, 2021).

Tests used:
[1] = target: T1, CMP-sialic acid transporter (CST) (Mus musculus, UniProt Q61420); assay: X-ray crystal structure at […] Å; FSEC thermal shift binding assay with Kd (also inhibits [3H]CMP-Sia uptake in Sf9 cells, IC50 […]); parameters: gene Slc35a1; Kd: full-length, GFP-tagged mouse CST; crystal: CSTΔC construct, which lacks the last 15 residues (322–336)
T1 sequence (Q61420 1-336): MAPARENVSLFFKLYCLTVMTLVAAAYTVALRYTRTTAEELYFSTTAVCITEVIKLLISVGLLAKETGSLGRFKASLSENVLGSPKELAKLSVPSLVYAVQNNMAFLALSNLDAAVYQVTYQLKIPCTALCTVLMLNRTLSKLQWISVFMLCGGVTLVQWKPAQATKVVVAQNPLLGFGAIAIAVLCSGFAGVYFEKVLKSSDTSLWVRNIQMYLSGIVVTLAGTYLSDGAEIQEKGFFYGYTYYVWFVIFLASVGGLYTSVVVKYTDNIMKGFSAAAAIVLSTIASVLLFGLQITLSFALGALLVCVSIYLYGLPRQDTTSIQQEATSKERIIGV

[2] = target: T1, CMP-sialic acid transporter (CST); assay: FSEC thermal shift binding assay with Kd (also inhibits [3H]CMP-Sia uptake in Sf9 cells, IC50 […]); parameters: gene Slc35a1; Full-length, GFP-tagged mouse CST

Structure (SMILES) | Kd [1] [µM] | Kd [2] [µM]
Cc1cn([C@@H]2O[C@H](COP(=O)(O)O)[C@@H](O)[C@H]2O)c(=O)nc1N [m5CMP, 5-methyl CMP] | 1 | 
Nc1ccn([C@@H]2O[C@H](COP(=O)(O)O)[C@@H](O)[C@H]2O)c(=O)n1 [CMP] |  | 16.1
